Structures can show the parent of a compound that is named as a salt. Where two headings read alike, the source gives them in different places.
Legend:
[1] = system: reserpine-induced hypothermia; test: Antidepressive action: reserpine antagonism, inhibition of reserpine-induced hypothermia of the mouse; format: in vivo, male Swiss mice; settings: for R.A. (relative activity), reserpine antagonism: amezinium = 1.00, oral; for ED 50% (dose which inhibits the reserpine-induced hypothermia of the mouse by 50%) / ED50: dose based on the base; for ED50: Mus musculus, read-out: ED 50% (dose which inhibits the reserpine-induced hypothermia of the mouse by 50%)
Description: Antidepressants effect dose-dependent inhibition of this hypotherma. The test substances are administered orally 60 minutes before the administration of reserpine.
The dose which effects 50% inhibition of the reserpine-induced hypothermia is determined, as the ED 50%, from the linear regression between log dose (mg/kg) and relative reduction in hypothermia (Δ%).

[2] = system: blood pressure; test: Effect on the blood pressure: hypertensive action, pithed rat; format: in vivo, male Sprague-Dawley rats; settings: for R.A. (relative activity), hypertensive action: amezinium = 1.00; for ED 20% hypertensive action (dose which increases the blood pressure of the pithed rat by 20%) / ED20: dose based on the base; for ED20: Rattus norvegicus, read-out: ED 20% hypertensive action (dose which increases the blood pressure of the pithed rat by 20%)
Description: The measurement of the blood pressure in the carotid artery was carried out by means of Statham transducers. The substance was administered in the jugular vein (as an aqueous solution, 1 ml/kg) or intraperitoneally (as a tragacanth suspension, 2 ml/kg). The ED 20% is determined as the dose which increases the blood pressure by 20%.

[3] = system: reserpine-induced hypothermia / blood pressure; test: Quotient ED 50% antidepressive action / ED 20% hypertensive action; format: in vivo, mouse / rat; settings: for Q Increase: Table 2, route of hypertensive test not given; for antidepressive and hypertensive action (in words): in vivo; for factor by which the hypertensive dose (ED 20%) is smaller than the antidepressive effective dose (ED 50%): compounds of Table 2;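 as to Q Increase: larger quotient means more selective hypertensive action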
From the text: This is evident from the fact that the quotient defined above differs wtih respect to the comparative compounds. […] This arises, inter alia, from the fact that the hypertensive ED 20 constitutes the denominator of the quotient. It is possible that the unforeseeable selective direction of action is attributable to the special substitution,in accordance with the invention, at the 4-imino group.

[4] = Table 1, oral administration 60 min before reserpine
[5] = ip, Table 1, i.p. administration
[6] = iv, Table 1, i.v. administration

Row | SMILES | R.A. (relative activity), reserpine antagonism ([1]; Table 1) | R.A. (relative activity), reserpine antagonism ([1]; Table 2) | R.A. (relative activity), hypertensive action ([2]; Table 1, i.p. administration) | R.A. (relative activity), hypertensive action ([2]; Table 1, i.v. administration) | R.A. (relative activity), hypertensive action ([2]; Table 2) | Q Increase [3] | Q (quotient ED 50% antidepressive action/ED 20% hypertensive action) ([3]; hypertensive test i.p.) | Q (quotient ED 50% antidepressive action/ED 20% hypertensive action) ([3]; hypertensive test i.v.) | ED50 [1, 4] [mg/kg] | ED20 [2, 5] [mg/kg] | ED20 [2, 6] [mg/kg] | ED20 ([2]; Table 2, route not given) [mg/kg] | ED50 ([1]; Table 2, oral administration) [mg/kg] | also measured
1 | Nc1cc[n+](-c2ccccc2)nc1.[O-][Cl+3]([O-])([O-])[O-] [1-phenyl-4-amino-pyridazinium perchlorate, reference compound] | 1.83 | 1.83 | 1.48 | 2.78 | 2.78 | 22.22 | 1.60 | 22.22 |  |  |  |  |  | ED 50% (dose which inhibits the reserpine-induced hypothermia of the mouse by 50%) [1, 4]: 0.40 mg/kg; ED 50% (dose which inhibits the reserpine-induced hypothermia of the mouse by 50%) ([1]; Table 2, oral administration): 0.40 mg/kg; ED 20% hypertensive action (dose which increases the blood pressure of the pithed rat by 20%) ([2]; Table 1, i.p. administration): 0.25 mg/kg; ED 20% hypertensive action (dose which increases the blood pressure of the pithed rat by 20%) ([2]; Table 1, i.v. administration): 0.018 mg/kg; ED 20% hypertensive action (dose which increases the blood pressure of the pithed rat by 20%) ([2]; Table 2, route not given): 0.018 mg/kg; Q (quotient ED 50% antidepressive action/ED 20% hypertensive action) ([3]; hypertensive test i.p., listed as Example 1 of German Laid-Open Application DOS No. 2,245,248): 1.6; Q (quotient ED 50% antidepressive action/ED 20% hypertensive action) ([3]; hypertensive test i.v., listed as Example 1 of German Laid-Open Application DOS No. 2,245,248): 22.2; antidepressive and hypertensive action (in words) [3]: have an antidepressive and hypertensive action
2 | COc1cc(N)cn[n+]1-c1ccccc1 [Amezinium, 1-phenyl-4-amino-6-methoxypyridazinium methosulfate, reference compound] | 1.00 | 1.00 | 1.00 | 1.00 | 1.00 | 14.66 | 1.98 | 14.66 | 0.733 | 0.37 | 0.05 | 0.05 |  | factor by which the hypertensive dose (ED 20%) is smaller than the antidepressive effective dose (ED 50%) [3]: 15; Q (quotient ED 50% antidepressive action/ED 20% hypertensive action) ([3]; hypertensive test i.v., listed as amezinium): 14.7; antidepressive and hypertensive action (in words) [3]: have an antidepressive and hypertensive action
3 | CC(=O)N=c1ccn(-c2ccccc2)nc1 [Example 1, 4-acetylimino-1,4-dihydro-1-phenylpyridazine hydrochloride] | 1.09 |  |  | 0.16 |  |  |  | 2.09 | 0.67 |  | 0.32 |  |  | 
4 | CCC(=O)N=c1ccn(-c2ccccc2)nc1 [Example 3, 1,4-dihydro-1-phenyl-4-(propionylimino)-pyridazine hydrochloride] | 2.22 |  |  | 0.25 |  |  |  | 1.65 | 0.33 |  | 0.2 |  |  | 
5 | CC(C)C(=O)N=c1ccn(-c2ccccc2)nc1 [Example 5, 1,4-dihydro-4-isobutyrylimino-1-phenylpyridazine hydrochloride] | 1.83 |  |  | 0.23 |  |  |  | 1.82 | 0.4 |  | 0.215 |  |  | 
6 | CCCCCCCC(=O)N=c1ccn(-c2ccccc2)nc1 [Example 8, 1,4-dihydro-4-octanoylimino-1-phenylpyridazine hydrochloride] |  | 0.14 |  |  | 0.91 | 95.09 |  |  |  |  |  | 0.055 | 5.23 | 
7 | O=C(Cc1ccccc1)N=c1ccn(-c2ccccc2)nc1 [Example 9, 1,4-dihydro-1-phenyl-4-[(phenylacetyl)-imino]-pyridazine hydrochloride] |  | 0.18 |  |  | 0.79 | 63.17 |  |  |  |  |  | 0.063 | 3.98 | 
8 | O=C(N=c1ccn(-c2ccccc2)nc1)C1CC1 [Example 10, 4-(cyclopropylcarbonyl)-imino-1,4-dihydro-1-phenylpyridazine hydrochloride] | 0.52 |  |  | 0.11 |  |  |  | 3.04 | 1.41 |  | 0.464 |  |  | 
9 | O=C(N=c1ccn(-c2ccccc2)nc1)C1CCC1 [Example 11, 4-(cyclobutylcarbonyl)-imino-1,4-dihydro-1-phenylpyridazine hydrochloride] |  | 0.12 |  |  | 0.65 | 79.09 |  |  |  |  |  | 0.077 | 6.09 | 
10 | C=C(C)C(=O)N=c1ccn(-c2ccccc2)nc1 [Example 12, 1,4-dihydro-4-methacryloylimino-1-phenylpyridazine] |  | 0.98 |  |  | 2.27 | 34.09 |  |  |  |  |  | 0.022 | 0.75 | 
11 | O=C(N=c1ccn(-c2ccccc2)nc1)c1ccc(F)cc1 [Example 14, 1,4-dihydro-4-(4-fluorobenzoyl)-imino-1-phenylpyridazine hydrochloride] |  | 0.73 |  |  | 1.19 | 23.81 |  |  |  |  |  | 0.042 | 1 | factor by which the hypertensive dose (ED 20%) is smaller than the antidepressive effective dose (ED 50%) [3]: 24
12 | O=C(N=c1ccn(-c2ccccc2)nc1)c1cc(Cl)cc(Cl)c1 [Example 15, 4-(3,5-dichlorobenzoyl)-imino-1,4-dihydro-1-phenylpyridazine] | 0.27 |  | < 0.04 |  |  |  | < 0.27 |  | 2.7 | > 10 |  |  |  | 
13 | O=C(N=c1ccn(-c2ccccc2)nc1)c1ccccc1 [Example 16, 4-benzoylimino-1,4-dihydro-1-phenylpyridazine] |  | 0.55 |  |  | 1.09 | 28.91 |  |  |  |  |  | 0.046 | 1.33 | 
14 | O=C(N=c1ccn(-c2ccccc2)nc1)c1ccccc1Cl [Example 17] |  | 0.27 |  |  | 1.09 | 60.00 |  |  |  |  |  | 0.046 | 2.76 | 
15 | O=C(N=c1ccn(-c2ccccc2)nc1)c1ccc(Cl)cc1 [Example 19] | 0.54 |  | < 0.04 |  |  |  | < 0.14 |  | 1.35 | > 10 |  |  |  | 
16 | O=C(N=c1ccn(-c2ccccc2)nc1)c1ccc(Cl)cc1Cl [Example 20] | 0.67 |  | < 0.04 |  |  |  | < 0.11 |  | 1.1 | > 10 |  |  |  | 
17 | O=C(N=c1ccn(-c2ccccc2)nc1)c1ccc(Cl)c(Cl)c1 [Example 22] | 0.24 |  | 0.08 |  |  |  | 0.67 |  | 3.1 | 4.64 |  |  |  | 
18 | Cc1cccc(C(=O)N=c2ccn(-c3ccccc3)nc2)c1 [Example 23] | 0.74 |  | 0.37 |  |  |  | 0.98 |  | 0.98 | 1 |  |  |  | 
19 | O=C(N=c1ccn(-c2ccccc2)nc1)c1cccc(C(F)(F)F)c1 [Example 26] | 0.22 |  | 0.08 |  |  |  | 0.70 |  | 3.26 | 4.64 |  |  |  | 
20 | CC1(C(=O)N=c2ccn(-c3ccccc3)nc2)CCCCC1 [Example 28] | 1.26 |  |  | 0.50 |  |  |  | 5.80 | 0.58 |  | 0.1 |  |  | 
21 | CCOC(=O)N=c1ccn(-c2ccccc2)nc1 [Example 29, 1,4-dihydro-4-(ethoxycarbonyl)-imino-1-phenylpyridazine hydrochloride] | 0.85 |  |  | 0.23 |  |  |  | 4.00 | 0.86 |  | 0.215 |  |  | 
22 | COC(=O)[C@H]1[C@H]2C[C@@H]3c4[nH]c5cc(OC)ccc5c4CCN3C[C@H]2C[C@@H](OC(=O)c2cc(OC)c(OC)c(OC)c2)[C@@H]1OC [Reserpine, reference compound] |  |  |  |  |  |  |  |  |  |  |  |  |  | reduction of body temperature ([1]; 2.15 mg/kg s.c., 2 hours after administration, ambient 20° to 22° C., average): 3 °C
